# Results: PubChem BioAssay AID1963854 (Molecular Pharmacology Branch, DTP, NCI, 2024)
# System: 186277-243-T-J2-PDC complex spheroid viability
# Experiment: Anticancer human tumor 186277-243-T-J2-PDC patient-derived colon adenocarcinoma cell line growth inhibition [POLQ]
# Conditions: for IC50: curve of first compound; for viability, T/C: stronger effect = lower value
# In short: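 Complex spheroid viability model combining PDC tumour cells with endothelial (HUVEC) and MSC stromal cells. Novobiocin, ART-558 or RP6685 were tested singly and in combination with standard and investigational anticancer drugs. Each was titrated in half-log steps from near clinical Cmax, or from 10 microM where Cmax was unknown.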
# [1] = second compound 0.0316 µM, first compound 0.0316 µM
# [2] = second compound 0.0316 µM, first compound 0.1 µM
# [3] = second compound 0.0316 µM, first compound 0.316 µM
# [4] = second compound 0.0316 µM, first compound 1 µM
# [5] = second compound 0.0316 µM, first compound 3.16 µM
# [6] = second compound 0.0316 µM, first compound 10 µM
# [7] = second compound 0.1 µM, first compound 0.0316 µM
# [8] = second compound 0.1 µM, first compound 0.1 µM
# [9] = second compound 0.1 µM, first compound 0.316 µM
# [10] = second compound 0.1 µM, first compound 1 µM
# [11] = second compound 0.1 µM, first compound 3.16 µM
# [12] = second compound 0.1 µM, first compound 10 µM
# [13] = second compound 0.316 µM, first compound 0.0316 µM
# [14] = second compound 0.316 µM, first compound 0.1 µM
# [15] = second compound 0.316 µM, first compound 0.316 µM
# [16] = second compound 0.316 µM, first compound 1 µM
# [17] = second compound 0.316 µM, first compound 3.16 µM
# [18] = second compound 0.316 µM, first compound 10 µM
# [19] = second compound 1 µM, first compound 0.0316 µM
# [20] = second compound 1 µM, first compound 0.1 µM
# [21] = second compound 1 µM, first compound 0.316 µM
# [22] = second compound 1 µM, first compound 1 µM
# [23] = second compound 1 µM, first compound 3.16 µM
# [24] = second compound 1 µM, first compound 10 µM
# [25] = second compound 3.16 µM, first compound 0.0316 µM
# [26] = second compound 3.16 µM, first compound 0.1 µM
# [27] = second compound 3.16 µM, first compound 0.316 µM
# [28] = second compound 3.16 µM, first compound 1 µM
# [29] = second compound 3.16 µM, first compound 3.16 µM
# [30] = second compound 3.16 µM, first compound 10 µM
# [31] = second compound 10 µM, first compound 0.0316 µM
# [32] = second compound 10 µM, first compound 0.1 µM
# [33] = second compound 10 µM, first compound 0.316 µM
# [34] = second compound 10 µM, first compound 1 µM
# [35] = second compound 10 µM, first compound 3.16 µM
# [36] = second compound 10 µM, first compound 10 µM
# 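Further: spheroids exposed to compounds for seven days.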
# 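Wherever viability, T/C is given: 100% = DMSO vehicle control viability.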
smiles,measurement,setting,value
CC1COCCN1c1cc(-c2ccnn2C)c2ccnc(-c3ccn[nH]3)c2n1 (stereo unspecified) + Nc1ccc(C#CCN(C(=O)Cc2ncc(C(F)(F)F)cc2C(F)(F)F)c2ccc(F)cc2)nn1,IC50,second compound 0.0316 µM,74 nM
same,IC50,second compound 0.1 µM,75.2 nM
same,IC50,second compound 0.316 µM,76.3 nM
same,IC50,second compound 1 µM,76.4 nM
same,IC50,second compound 3.16 µM,75.8 nM
same,IC50,second compound 10 µM,71.9 nM
same,"viability, T/C",[1],113%
same,"viability, T/C",[2],27.5%
same,"viability, T/C",[3],10.3%
same,"viability, T/C",[4],7.67%
same,"viability, T/C",[5],6.65%
same,"viability, T/C",[6],7.86%
same,"viability, T/C",[7],115%
same,"viability, T/C",[8],28.8%
same,"viability, T/C",[9],11%
same,"viability, T/C",[10],7.38%
same,"viability, T/C",[11],6.86%
same,"viability, T/C",[12],9.94%
same,"viability, T/C",[13],126%
same,"viability, T/C",[14],26.8%
same,"viability, T/C",[15],9.95%
same,"viability, T/C",[16],7.12%
same,"viability, T/C",[17],6.81%
same,"viability, T/C",[18],9.08%
same,"viability, T/C",[19],124%
same,"viability, T/C",[20],27.5%
same,"viability, T/C",[21],9.34%
same,"viability, T/C",[22],7.54%
same,"viability, T/C",[23],6.88%
same,"viability, T/C",[24],9.31%
same,"viability, T/C",[25],123%
same,"viability, T/C",[26],26.7%
same,"viability, T/C",[27],9.31%
same,"viability, T/C",[28],6.61%
same,"viability, T/C",[29],8.2%
same,"viability, T/C",[30],7.84%
same,"viability, T/C",[31],118%
same,"viability, T/C",[32],22.5%
same,"viability, T/C",[33],9.8%
same,"viability, T/C",[34],7.22%
same,"viability, T/C",[35],6.51%
same,"viability, T/C",[36],7.63%
Nc1ccn(C2OC(CO)C(O)C2(F)F)c(=O)n1 (stereo unspecified) + Nc1ccc(C#CCN(C(=O)Cc2ncc(C(F)(F)F)cc2C(F)(F)F)c2ccc(F)cc2)nn1,IC50,second compound 0.0316 µM,< 31.6 nM
same,IC50,second compound 0.1 µM,< 31.6 nM
same,IC50,second compound 0.316 µM,< 31.6 nM
same,IC50,second compound 1 µM,< 31.6 nM
same,IC50,second compound 3.16 µM,< 31.6 nM
same,IC50,second compound 10 µM,< 31.6 nM
same,"viability, T/C",[1],14.7%
same,"viability, T/C",[2],11.5%
same,"viability, T/C",[3],11.6%
same,"viability, T/C",[4],14%
same,"viability, T/C",[5],14%
same,"viability, T/C",[6],13.6%
same,"viability, T/C",[7],13.9%
same,"viability, T/C",[8],12.2%
same,"viability, T/C",[9],12.4%
same,"viability, T/C",[10],13.2%
same,"viability, T/C",[11],15%
same,"viability, T/C",[12],13.8%
same,"viability, T/C",[13],14.4%
same,"viability, T/C",[14],12.9%
same,"viability, T/C",[15],12.7%
same,"viability, T/C",[16],13.4%
same,"viability, T/C",[17],14.1%
same,"viability, T/C",[18],15.2%
same,"viability, T/C",[19],12.8%
same,"viability, T/C",[20],12%
same,"viability, T/C",[21],11.7%
same,"viability, T/C",[22],13%
same,"viability, T/C",[23],14.8%
same,"viability, T/C",[24],14.3%
same,"viability, T/C",[25],13%
same,"viability, T/C",[26],13.9%
same,"viability, T/C",[27],10.6%
same,"viability, T/C",[28],11.9%
same,"viability, T/C",[29],15.2%
same,"viability, T/C",[30],15.3%
same,"viability, T/C",[31],12.5%
same,"viability, T/C",[32],11.3%
same,"viability, T/C",[33],11.5%
same,"viability, T/C",[34],11.5%
same,"viability, T/C",[35],12.9%
same,"viability, T/C",[36],13.9%
COc1ccc([C@@H](O)c2cc(-c3ncnc4cc(N5CCOCC5)ccc34)c(F)cc2Cl)nn1 + Nc1ccc(C#CCN(C(=O)Cc2ncc(C(F)(F)F)cc2C(F)(F)F)c2ccc(F)cc2)nn1,IC50,second compound 0.0316 µM,> 10000 nM
same,IC50,second compound 0.1 µM,> 10000 nM
same,IC50,second compound 0.316 µM,> 10000 nM
same,IC50,second compound 1 µM,> 10000 nM
same,IC50,second compound 3.16 µM,> 10000 nM
same,IC50,second compound 10 µM,> 10000 nM
same,"viability, T/C",[1],104%
same,"viability, T/C",[2],109%
same,"viability, T/C",[3],110%
same,"viability, T/C",[4],103%
same,"viability, T/C",[5],90.2%
same,"viability, T/C",[6],58.5%
same,"viability, T/C",[7],97.6%
same,"viability, T/C",[8],106%
same,"viability, T/C",[9],99.5%
same,"viability, T/C",[10],96.3%
same,"viability, T/C",[11],101%
same,"viability, T/C",[12],67.7%
same,"viability, T/C",[13],99.3%
same,"viability, T/C",[14],95.6%
same,"viability, T/C",[15],107%
same,"viability, T/C",[16],108%
same,"viability, T/C",[17],101%
same,"viability, T/C",[18],60%
same,"viability, T/C",[19],114%
same,"viability, T/C",[20],101%
same,"viability, T/C",[21],104%
same,"viability, T/C",[22],95.4%
same,"viability, T/C",[23],98.3%
same,"viability, T/C",[24],63.8%
same,"viability, T/C",[25],111%
same,"viability, T/C",[26],105%
same,"viability, T/C",[27],97.6%
same,"viability, T/C",[28],116%
same,"viability, T/C",[29],99.7%
same,"viability, T/C",[30],63.2%
same,"viability, T/C",[31],104%
same,"viability, T/C",[32],90.6%
same,"viability, T/C",[33],102%
same,"viability, T/C",[34],114%
same,"viability, T/C",[35],111%
same,"viability, T/C",[36],57%
